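A five-concentration, 48-hour dose response in 96-well plates underlies each endpoint, interpolated linearly between surrounding concentrations. At the TGI there is no net growth.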
How the values were obtained:
Test in all cases: NCI anticancer screen, dose series, 48 h
UO-31 renal = tested on: UO-31 renal
NCI-H460 lung = tested on: NCI-H460 lung
RXF 393 renal = tested on: RXF 393 renal
DLD-1 colon = tested on: DLD-1 colon
UACC-62 melanoma = tested on: UACC-62 melanoma
CCRF-CEM leukemia = tested on: CCRF-CEM leukemia
SF-295 CNS = tested on: SF-295 CNS
DMS 273 small cell lung = tested on: DMS 273 small cell lung
HCT-15 colon = tested on: HCT-15 colon
SNB-19 CNS = tested on: SNB-19 CNS
OVCAR-4 ovarian = tested on: OVCAR-4 ovarian
OVCAR-5 ovarian = tested on: OVCAR-5 ovarian
LXFL 529 NSCLC = tested on: LXFL 529 NSCLC
RPMI-8226 leukemia = tested on: RPMI-8226 leukemia
HT29 colon = tested on: HT29 colon
NCI-H23 lung = tested on: NCI-H23 lung
SK-MEL-2 melanoma = tested on: SK-MEL-2 melanoma
OVCAR-3 ovarian = tested on: OVCAR-3 ovarian
U251 CNS = tested on: U251 CNS
IGROV1 ovarian = tested on: IGROV1 ovarian
LOX IMVI melanoma = tested on: LOX IMVI melanoma
TK-10 renal = tested on: TK-10 renal
MALME-3M melanoma = tested on: MALME-3M melanoma
UACC-257 melanoma = tested on: UACC-257 melanoma
A549 NSCLC = tested on: A549 NSCLC
SN12C renal = tested on: SN12C renal
ACHN renal = tested on: ACHN renal
XF 498 CNS = tested on: XF 498 CNS
SW-620 colon = tested on: SW-620 colon
A498 renal = tested on: A498 renal
KM20L2 colon = tested on: KM20L2 colon
OVCAR-8 ovarian = tested on: OVCAR-8 ovarian
K-562 leukemia = tested on: K-562 leukemia
HOP-92 NSCLC = tested on: HOP-92 NSCLC
RXF-631 renal = tested on: RXF-631 renal
KM12 colon = tested on: KM12 colon
786-0 renal = tested on: 786-0 renal
SK-MEL-5 melanoma = tested on: SK-MEL-5 melanoma
M19-MEL melanoma = tested on: M19-MEL melanoma
HOP-18 NSCLC = tested on: HOP-18 NSCLC
SK-OV-3 ovarian = tested on: SK-OV-3 ovarian
COLO 205 colon = tested on: COLO 205 colon
NCI-H522 lung = tested on: NCI-H522 lung
SF-539 CNS = tested on: SF-539 CNS
MOLT-4 leukemia = tested on: MOLT-4 leukemia
NCI-H226 lung = tested on: NCI-H226 lung
M14 melanoma = tested on: M14 melanoma
EKVX NSCLC = tested on: EKVX NSCLC
CAKI-1 renal = tested on: CAKI-1 renal
HL-60(TB) leukemia = tested on: HL-60(TB) leukemia

Measured: TGI

COc1ccc(N(CC(=O)O)S(=O)(=O)c2ccccc2)cc1
> 100 µM: all assays above
